The species named for one assay is Homo sapiens. Nature of the assay: Growth inhibition of normal human hematopoietic progenitor cells by colony forming assay. Type of assay: functional.
For assay [1], the system named is Polycythemia vera. Nature of the assay: Growth inhibition of JAK2 V617F mutant expressing human polycythemia vera hematopoietic progenitor cells at 5 uM by erythroid burst-forming unit assay. Format: functional, cell-based.
Assay [2] is described as follows: Growth inhibition of JAK2 V617F mutant expressing hematopoietic progenitor cells isolated from polycythemia vera patient by colony forming assay. Format: functional, cell-based. Conditions: Homo sapiens.
Another assay concerns Jurkat. Nature of the assay: Growth inhibition of human Jurkat cells after 24 hrs. Type of assay: functional, cell-based.
The nature of assay [3]: Growth inhibition of JAK2 V617F mutant expressing human erythroleukemia cells after 24 hrs. To be noted: Leukemia cell. Format: functional, cell-based.
Assay [4] can be described thus: Growth inhibition of mouse erythroleukemia cells after 24 hrs. Type of assay: functional, cell-based. Conditions: Leukemia cell.
In assay [5] the test system is Polycythemia vera. Nature of the assay: Growth inhibition of JAK2 V617F mutant deficient human polycythemia vera hematopoietic progenitor cells at 5 uM by erythroid burst-forming unit assay. Type of assay: functional, cell-based.
Assay [6] is described as follows: Inhibition of formation of erythroid burst-forming units in human polycythemia vera cells at 1 uM. Conditions: read-out: INH.

Counter-ions that a name gives are not always drawn. Active and inactive are the calls of the source. The rule behind the calls is not given here.

Turning to `C#Cc1cccc(Nc2ncnc3cc(OCCOC)c(OCCOC)cc23)c1` [ERLOTINIB], the outcome in the assay filed under Homo sapiens and with Polycythemia vera [5] was inactive. Further, the result with Polycythemia vera [1] was Active. The IC50 in assay [2] was 5000 nM; in the assay on Jurkat it was 2000 nM; in assay [3] it was 2000 nM; in assay [4] it was 2000 nM.

For `Cc1ccc(NC(=O)c2ccc(CN3CCN(C)CC3)cc2)cc1Nc1nccc(-c2cccnc2)n1` [IMATINIB MESYLATE], the inhibition at 1 µM in assay [6] turned out to be 73%.
